This assay concerns the target T1, EphrinB2-EphB1 (Homo sapiens, UniProt P54762).
T1 construct: soluble human EphB1-His, EphB2-His, and EphB4-His ectodomains; commercially available human EphrinB1-Fc (EB1), EphrinB2-Fc (EB2), and EphrinB3-Fc (EB3) ectodomain proteins; purchased
T1 sequence (P54762 18-540 limits assumed): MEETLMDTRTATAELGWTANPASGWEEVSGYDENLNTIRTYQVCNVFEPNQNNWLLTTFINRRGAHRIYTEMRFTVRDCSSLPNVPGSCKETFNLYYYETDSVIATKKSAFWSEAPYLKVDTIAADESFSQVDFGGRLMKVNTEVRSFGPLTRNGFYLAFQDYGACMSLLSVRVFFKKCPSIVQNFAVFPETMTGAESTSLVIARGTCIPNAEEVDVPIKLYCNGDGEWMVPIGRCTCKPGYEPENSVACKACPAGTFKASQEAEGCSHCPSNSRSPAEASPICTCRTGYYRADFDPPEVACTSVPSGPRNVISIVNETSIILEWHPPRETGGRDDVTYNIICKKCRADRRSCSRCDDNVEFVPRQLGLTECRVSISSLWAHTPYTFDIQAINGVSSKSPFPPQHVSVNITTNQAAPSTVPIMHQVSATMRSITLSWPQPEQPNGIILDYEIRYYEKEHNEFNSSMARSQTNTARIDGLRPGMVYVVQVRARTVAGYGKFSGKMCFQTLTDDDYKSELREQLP
Description: Octet, immobilized human EphrinB2 binding to 50 nM soluble human EphB1. The procedure:
Studies were conducted to confirm that A20 chemicals can effectively target the human Eph/Ephrin proteins. Octet system was used to first characterize the biophysical interactions of the human B class Eph and Ephrin proteins, and then was tested to assess how A20 may disrupt the interactions. Since the human and rodent proteins are highly conserved, and essentially identical, with EphB2 sharing 99.5% identity between human and mouse, with only 5 of ~1,000 amino acids different, any species-specific differences were not anticipated. Therefore, commercially available human EphrinB1-Fc (EB1), EphrinB2-Fc (EB2), and EphrinB3-Fc (EB3) ectodomain proteins were sparsely immobilized onto biosensors and then exposed to 50 nM of soluble human EphB1-His, EphB2-His, and EphB4-His ectodomains for 800 sec association and 1,000 sec dissociation steps with a total of nine different interactions analyzed. In the absence of A20 chemical, the immobilized human EphrinB proteins bound to their appropriate human EphB target proteins; with EphrinB1 only bound EphB1 and EphB2, EphrinB2 bound all three EphB1, EphB2, and EphB4, and EphrinB3 only bound EphB1 and EphB2 (FIG. 19A-19B).
The Octet studies shown in FIG. 19A-19F, and FIG. 20A-20C, and Table 2 using human proteins involved runs in which 1, 10, and 100 μM concentrations of the A20.2×HCl salt were included to determine how compound would affect binding kinetics. The sensorgrams for immobilized human EphrinB2 binding to EphB2 and EphB4 with 0, 1, 10, and 100 μM concentrations of A20 salt provide good examples of how the compound can alter Eph-Ephrin protein-protein interaction dynamics. […] This indicates the effective/relative IC50 for A20 is well below 1 μM (more accurate IC50 calculations are provided below). Notwithstanding, if just the sensorgram responses for 0 and 1 μM A20 are analyzed for absolute IC50 calculations (FIG. 21B), it is clear the compound is a much stronger inhibitor of the EB2-EphB2 interaction whether assessed near the end of association step (blue star), shortly after start of dissociation step (gold star), or by AUC, as all provide absolute IC50 values −1 μM. […] For EphB2-EB2, the slope went from 20° to 10° in the presence of A20 and for EphB4-EB2 from 5° to 3°. The reduced slope later in the association step indicates the A20 compound is specifically affecting accumulation of the stable tetramer.
Addition of compound also altered dissociation kinetics. […] This is referred to as the “unsurmountable” component of the Eph-Ephrin interaction (FIG. 21C). Additionally, AUC data was graphed for these runs (FIG. 21D). […] For EB2-EphB4, the dimer:tetramer ratio was 83:8 in the presence of A20 and was not much different from the no compound control run because it is already a strong dimer-driven interaction. […] A similar though more muted effect of A20 on tetramer accumulation was also observed for the other interactions of immobilized human EphrinB binding to soluble human EphB1 and EphB2 ectodomains (FIG. 22). The inhibitory effect of A20 is strongest on the EB2-EphB2 interaction with absolute IC50 reaching 1 μM, followed by the EB2-EphB1 interaction with absolute IC50-10 μM. […] The “unsurmountable” component of the EB2-EphB1 interaction was-50% of the tetramer species (14:41) whereas that for EB2-EphB2 interaction is-30%.
Further to the experiments listed above, a series of dose-response experiments were conducted to determine the IC50 of a selected A20 chemical (A20-1) on the kinetics of human EphrinB2 ligand ectodomain protein binding to its cognate human EphB1, EphB2, and EphB4 receptor ectodomain proteins. FIG. 74A-74C are representative sensorgrams showing the effect of 0, 0.1, 0.2, 0.4, 0.8, 1.6, and 3.2 μM, concentrations of the 2×HCl salt of A20-I along with a 10 μM max standard (also A20-1) on three different Ephrin-EphB interactions (e.g., EphB1 in FIG. 74A, EphB2 in FIG. 74B and EphB4 in FIG. 74C). […]

The mark [1] stands for this setting: Table B, EphrinB2-EphB1, read-out: Relative Association IC50 (300 sec).

Values joined by “and” are separate entries in the source; they are usually repeats but may differ in a detail not shown here. Equal entries are not always repeated. Where two headings read alike, the source gives them in different places.

`Oc1c(Br)cc(CN2CCOCC2)c2cccnc12` [Compound 5, 7-bromo-5-(morpholinomethyl)quinolin-8-ol]: the IC50 (A20 salt, read-out: absolute IC50) was ~10000 nM. For the setting “read-out: concentration producing maximum inhibition”, the IC (maximum) came to 10 µM.
In the case of `Oc1c(I)cc(CN2CCOCC2)c2cccnc12` [Compound 8, 4-((8-hydroxy-7-iodoquinolin-1-ium-5-yl)methyl)morpholin-4-ium chloride], the IC50 under setting [1] amounted to 1140 nM.
On to `Oc1c(Br)cc(CN2CCN(c3ccc(Br)cc3)CC2)c2cccnc12` [Compound 30, 7-bromo-5-((4-(4-bromophenyl)piperazin-1-ium-1-yl)methyl)-8-hydroxyquinolin-1-ium chloride], for which the IC50 by setting is: (Table B, EphrinB2-EphB1, read-out: Absolute AUC/IC50) 160 nM; (Table B, EphrinB2-EphB1, read-out: Absolute Dissociation IC50 (450 sec)) 330 nM; (Table B, EphrinB2-EphB1, read-out: Relative AUC/IC50) 60 nM; under setting [1], 150 nM and 1100 nM; (Table B, EphrinB2-EphB1, read-out: Relative Dissociation IC50 (450 sec)) 70 nM.

Values taken from US20260374739A1, “SMALL MOLECULAR WEIGHT CHEMICAL COMPOUND TO ANTAGONIZE EPH-EPHRIN TETRAMERIZATION AND INHIBIT BIDIRECTIONAL SIGNALING” (THE BOARD OF REGENTS OF THE UNIVERSITY OF TEXAS SYSTEM, priority 2022, published 2026).
